In PubChem BioAssay (NCI):
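GI50 is the concentration that inhibits growth by half. TGI: total growth inhibition.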

Legend:
Experiment in all cases: growth of human tumour cells (NCI), 384-well format
DU-145 prostate = test system: DU-145 prostate
KM12 colon = test system: KM12 colon
HCT-116 colon = test system: HCT-116 colon
A549 NSCLC = test system: A549 NSCLC
NCI-H522 lung = test system: NCI-H522 lung
U251 glioblastoma = test system: U251 glioblastoma
MOLT-4 leukemia = test system: MOLT-4 leukemia
MDA-MB-435 melanoma = test system: MDA-MB-435 melanoma
LOX IMVI melanoma = test system: LOX IMVI melanoma
EKVX NSCLC = test system: EKVX NSCLC
SF-268 CNS = test system: SF-268 CNS
HS 578T breast = test system: HS 578T breast
SN12C renal = test system: SN12C renal
MALME-3M melanoma = test system: MALME-3M melanoma
MDA-MB-468 breast = test system: MDA-MB-468 breast
CCRF-CEM leukemia = test system: CCRF-CEM leukemia
HCT-15 colon = test system: HCT-15 colon
CAKI-1 renal = test system: CAKI-1 renal
K-562 leukemia = test system: K-562 leukemia
SF-539 CNS = test system: SF-539 CNS
SK-MEL-5 melanoma = test system: SK-MEL-5 melanoma
OVCAR-8 ovarian = test system: OVCAR-8 ovarian
NCI/ADR-RES ovarian = test system: NCI/ADR-RES ovarian
MDA-MB-231 breast = test system: MDA-MB-231 breast
HOP-92 NSCLC = test system: HOP-92 NSCLC
UACC-62 melanoma = test system: UACC-62 melanoma
SW-620 colon = test system: SW-620 colon
786-0 renal = test system: 786-0 renal
OVCAR-5 ovarian = test system: OVCAR-5 ovarian
RPMI-8226 leukemia = test system: RPMI-8226 leukemia
HT29 colon = test system: HT29 colon
SF-295 CNS = test system: SF-295 CNS
NCI-H23 lung = test system: NCI-H23 lung
A498 renal = test system: A498 renal
PC-3 prostate = test system: PC-3 prostate
HL-60(TB) leukemia = test system: HL-60(TB) leukemia
NCI-H460 NSCLC = test system: NCI-H460 NSCLC
OVCAR-3 ovarian = test system: OVCAR-3 ovarian
SK-MEL-2 melanoma = test system: SK-MEL-2 melanoma
HOP-62 NSCLC = test system: HOP-62 NSCLC
UO-31 renal = test system: UO-31 renal
SR leukemia = test system: SR leukemia
NCI-H226 lung = test system: NCI-H226 lung
SK-OV-3 ovarian = test system: SK-OV-3 ovarian
M14 melanoma = test system: M14 melanoma
SK-MEL-28 melanoma = test system: SK-MEL-28 melanoma
SNB-75 CNS = test system: SNB-75 CNS

Q: With `COc1nn(C)cc1Nc1nccc(-c2c[nH]c3c(NC(=O)[C@@H](C)N4CCN(C)CC4)cccc23)n1` as the compound, how does the GI50 (DU-145 prostate) read?
A: The GI50 was 40.4 µM.

Q: And the TGI (DU-145 prostate)?
A: The TGI was over 100 µM.

Q: What about the GI50 (KM12 colon) of the same compound?
A: Its GI50 is 20.1 µM.

Q: And the TGI (KM12 colon)?
A: Its TGI is 61.2 µM.

Q: And the GI50 (HCT-116 colon)?
A: Its GI50 is 19.8 µM.

Q: What about the TGI (HCT-116 colon) of the same compound?
A: Its TGI is 43.2 µM.

Q: And the GI50 (A549 NSCLC)?
A: Its GI50 is 25.7 µM.

Q: What about the TGI (A549 NSCLC) of the same compound?
A: The TGI was over 59.9 µM.

Q: And the GI50 (NCI-H522 lung)?
A: Its GI50 is 10.2 µM.

Q: And the TGI (NCI-H522 lung)?
A: The TGI was 26.5 µM.

Q: What about the GI50 (U251 glioblastoma) of the same compound?
A: The GI50 was 27.8 µM.

Q: And the TGI (U251 glioblastoma)?
A: Its TGI is 75.8 µM.

Q: And the GI50 (MOLT-4 leukemia)?
A: Its GI50 is 13.2 µM.

Q: What about the TGI (MOLT-4 leukemia) of the same compound?
A: Its TGI is 26.4 µM.

Q: What about the GI50 (MDA-MB-435 melanoma) of the same compound?
A: The GI50 was 13.5 µM.

Q: And the TGI (MDA-MB-435 melanoma)?
A: The TGI was 30.8 µM.

Q: What about the GI50 (LOX IMVI melanoma) of the same compound?
A: Its GI50 is 15.1 µM.

Q: What about the TGI (LOX IMVI melanoma) of the same compound?
A: Its TGI is 28.4 µM.

Q: And the GI50 (EKVX NSCLC)?
A: The GI50 was 18.7 µM.

Q: What about the TGI (EKVX NSCLC) of the same compound?
A: Its TGI is 49.5 µM.

Q: And the GI50 (SF-268 CNS)?
A: Its GI50 is 18.4 µM.

Q: What about the TGI (SF-268 CNS) of the same compound?
A: The TGI was 37 µM.

Q: What about the GI50 (HS 578T breast) of the same compound?
A: The GI50 was 13 µM.

Q: And the TGI (HS 578T breast)?
A: Its TGI is 25.9 µM.

Q: What about the GI50 (SN12C renal) of the same compound?
A: The GI50 was 26 µM.

Q: And the TGI (SN12C renal)?
A: Its TGI is over 100 µM.

Q: And the GI50 (MALME-3M melanoma)?
A: The GI50 was 14.9 µM.

Q: What about the TGI (MALME-3M melanoma) of the same compound?
A: The TGI was 29.2 µM.

Q: And the GI50 (MDA-MB-468 breast)?
A: The GI50 was 15.1 µM.

Q: What about the TGI (MDA-MB-468 breast) of the same compound?
A: The TGI was 30.9 µM.

Q: What about the GI50 (CCRF-CEM leukemia) of the same compound?
A: Its GI50 is 15.9 µM.

Q: And the TGI (CCRF-CEM leukemia)?
A: Its TGI is 29.4 µM.

Q: And the GI50 (HCT-15 colon)?
A: The GI50 was 18.7 µM.

Q: What about the TGI (HCT-15 colon) of the same compound?
A: Its TGI is 51.7 µM.

Q: What about the GI50 (CAKI-1 renal) of the same compound?
A: The GI50 was 11.7 µM.

Q: What about the TGI (CAKI-1 renal) of the same compound?
A: Its TGI is 28.6 µM.

Q: And the GI50 (K-562 leukemia)?
A: The GI50 was 10.5 µM.

Q: What about the TGI (K-562 leukemia) of the same compound?
A: Its TGI is 26.5 µM.

Q: And the GI50 (SF-539 CNS)?
A: Its GI50 is 14.8 µM.

Q: And the TGI (SF-539 CNS)?
A: Its TGI is 30.3 µM.

Q: What about the GI50 (SK-MEL-5 melanoma) of the same compound?
A: Its GI50 is 14.5 µM.

Q: What about the TGI (SK-MEL-5 melanoma) of the same compound?
A: Its TGI is 28.3 µM.

Q: What about the GI50 (OVCAR-8 ovarian) of the same compound?
A: The GI50 was 45.1 µM.

Q: What about the TGI (OVCAR-8 ovarian) of the same compound?
A: Its TGI is over 76.3 µM.

Q: What about the GI50 (NCI/ADR-RES ovarian) of the same compound?
A: Its GI50 is 45.4 µM.

Q: And the TGI (NCI/ADR-RES ovarian)?
A: The TGI was over 100 µM.

Q: And the GI50 (MDA-MB-231 breast)?
A: The GI50 was 28 µM.

Q: What about the TGI (MDA-MB-231 breast) of the same compound?
A: The TGI was over 95.5 µM.

Q: What about the GI50 (HOP-92 NSCLC) of the same compound?
A: The GI50 was 20.4 µM.

Q: What about the TGI (HOP-92 NSCLC) of the same compound?
A: The TGI was 47.6 µM.

Q: What about the GI50 (UACC-62 melanoma) of the same compound?
A: Its GI50 is 17.7 µM.

Q: What about the TGI (UACC-62 melanoma) of the same compound?
A: The TGI was 38.2 µM.

Q: What about the GI50 (SW-620 colon) of the same compound?
A: The GI50 was 21 µM.

Q: What about the TGI (SW-620 colon) of the same compound?
A: The TGI was 40.3 µM.

Q: What about the GI50 ([…]-0 renal) of the same compound?
A: Its GI50 is 18.4 µM.

Q: And the TGI (786-0 renal)?
A: Its TGI is 41.5 µM.

Q: What about the GI50 (OVCAR-5 ovarian) of the same compound?
A: The GI50 was 25.1 µM.

Q: What about the TGI (OVCAR-5 ovarian) of the same compound?
A: The TGI was 65.2 µM.

Q: And the GI50 (RPMI-8226 leukemia)?
A: Its GI50 is 11.2 µM.

Q: What about the TGI (RPMI-8226 leukemia) of the same compound?
A: The TGI was 26.6 µM.

Q: What about the GI50 (HT29 colon) of the same compound?
A: The GI50 was 17.7 µM.

Q: And the TGI (HT29 colon)?
A: Its TGI is 32.8 µM.

Q: And the GI50 (SF-295 CNS)?
A: The GI50 was 28.1 µM.

Q: And the TGI (SF-295 CNS)?
A: Its TGI is over 61.6 µM.

Q: What about the GI50 (NCI-H23 lung) of the same compound?
A: Its GI50 is 17.4 µM.

Q: What about the TGI (NCI-H23 lung) of the same compound?
A: The TGI was 42.3 µM.

Q: What about the GI50 (A498 renal) of the same compound?
A: The GI50 was 14.2 µM.

Q: And the TGI (A498 renal)?
A: The TGI was over 60.4 µM.

Q: What about the GI50 (PC-3 prostate) of the same compound?
A: Its GI50 is 23.1 µM.

Q: And the TGI (PC-3 prostate)?
A: The TGI was 86 µM.

Q: What about the GI50 (HL-60(TB) leukemia) of the same compound?
A: Its GI50 is 11.8 µM.

Q: And the TGI (HL-60(TB) leukemia)?
A: Its TGI is 24.1 µM.

Q: What about the GI50 (NCI-H460 NSCLC) of the same compound?
A: The GI50 was 25.4 µM.

Q: And the TGI (NCI-H460 NSCLC)?
A: Its TGI is over 77 µM.

Q: And the GI50 (OVCAR-3 ovarian)?
A: Its GI50 is 18.7 µM.

Q: And the TGI (OVCAR-3 ovarian)?
A: Its TGI is 51.2 µM.

Q: What about the GI50 (SK-MEL-2 melanoma) of the same compound?
A: The GI50 was 14.7 µM.

Q: And the TGI (SK-MEL-2 melanoma)?
A: Its TGI is 29.5 µM.

Q: And the GI50 (HOP-62 NSCLC)?
A: Its GI50 is 29.7 µM.

Q: And the TGI (HOP-62 NSCLC)?
A: Its TGI is over 89.1 µM.

Q: And the GI50 (UO-31 renal)?
A: Its GI50 is 17.3 µM.

Q: And the TGI (UO-31 renal)?
A: Its TGI is 32.5 µM.

Q: What about the GI50 (SR leukemia) of the same compound?
A: Its GI50 is 9.69 µM.

Q: And the TGI (SR leukemia)?
A: The TGI was 21.5 µM.

Q: And the GI50 (NCI-H226 lung)?
A: Its GI50 is 9.15 µM.

Q: And the TGI (NCI-H226 lung)?
A: Its TGI is 31.6 µM.

Q: And the GI50 (SK-OV-3 ovarian)?
A: The GI50 was 9.78 µM.

Q: And the TGI (SK-OV-3 ovarian)?
A: The TGI was 31.6 µM.

Q: What about the GI50 (M14 melanoma) of the same compound?
A: Its GI50 is 16.1 µM.

Q: And the TGI (M14 melanoma)?
A: The TGI was 31.2 µM.

Q: And the GI50 (SK-MEL-28 melanoma)?
A: Its GI50 is 26.9 µM.

Q: And the TGI (SK-MEL-28 melanoma)?
A: Its TGI is over 66.1 µM.

Q: What about the GI50 (SNB-75 CNS) of the same compound?
A: The GI50 was 17.7 µM.

Q: What about the TGI (SNB-75 CNS) of the same compound?
A: Its TGI is 32 µM.
